Bounds are passed on as bounds.

The term IC50 denotes the point on the concentration scale where inhibition reaches its midpoint.

For this experiment, the target named is Protein farnesyltransferase/geranylgeranyltransferase type-1 subunit alpha (Bos taurus, UniProt P29702). Briefly: PFT IC50 Determination. To be noted: pH 7.5; 37 °C. As to the method:
Assays for PFT activity were performed with a PFT-specific scintillation assay (SPA) kit (Amersham Biosciences, Piscataway, NJ). IC50 values were calculated using linear regression analysis of the plots of [3H] farnesyl pyrophosphate (FPP) prenylation versus concentration of compounds.

The compound `CSCC[C@H](NC(=O)[C@H](Cc1ccc(O)c(C)c1C)NC(=O)[C@@H](NC(=O)[C@@H](N)CS)C(C)C)C(=O)O` [(2S)-2-[(2S)-2-[(2S)-2-[(2R)-2-amino-3-sulfanylpropanamido]-3-methylbutanamido]-3-(4-hydroxy-2,3-dimethylphenyl)propanamido]-4-(methylsulfanyl)butanoic acid] gave an IC50 of 100 nM.
On to `CSCC[C@H](NC(=O)[C@@H](Cc1ccc(O)c(C)c1C)NC(=O)[C@@H](NC(=O)[C@H](CS)NC=O)C(C)C)C(=O)O` [Cmpound XI], for which the IC50 is more than 100000 nM.

The values are drawn from BindingDB's records for doi:10.1021/jm0506165 (Universita Di Napoli Federico Ii, 2006).
